Measured values reported in patent US10981906B2, “Substituted pyrrolopyridine JAK inhibitors and methods of making and using the same” (ACLARIS THERAPEUTICS, INC., priority 2017, dated 2021).

Experiments:
JAK3 (a.a. 781-1124) = JAK3 (a.a. 781-1124) (Homo sapiens (Human), UniProt P52333); experiment: JAK3 enzyme activity assay (SRCtide phosphorylation, Caliper); assay type: biochemical; conditions: 2.5 nM JAK3, 1 μM SRCtide, 1 uM ATP, 40 minutes; read-out: JAK3 Inhibition IC50
Method in brief: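 2.5 nM JAK3 kinase domain with 1 μM FAM-SRCtide and 1 μM ATP in 20 mM HEPES pH 7.5, 10 mM MgCl2, 2% DMSO, 40 min at room temperature, EDTA stop. Phospho/unphospho peptide separated by mobility shift; 11-point 3-fold series in duplicate, 4-parameter logistic IC50.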

[1] = test system: IL-2 stimulated STAT5 phosphorylation on Tyr694 (JAK1/3); experiment: JAK1/3 cellular target modulation: IL-2 stimulated phospho-STAT5 in PBMC; assay type: cell-based; conditions: Homo sapiens, PBMC, IL-2 25 ng/ml, 1 hour compound preincubation, read-out: IL2-STAT5 Inhibition IC50
Method in brief: (§1)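 Thawed human PBMC (200,000/well) in complete RPMI/10% FBS preincubated with compound 1 h at 37 °C, then stimulated with IL-2 25 ng/ml for 5 min (pSTAT5 Tyr694) or IFNγ 10 ng/ml for 10 min (pSTAT1 Tyr701). Cells lysed; pSTAT5 by MSD Tyr694/total STAT5a,b assay, pSTAT1 by sandwich ELISA.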

JAK1 = JAK1 (Homo sapiens (Human), UniProt P23458); experiment: JAK1 enzyme activity assay (Thermo Fisher SelectScreen Z-lyte); assay type: biochemical; conditions: 1 hour kinase reaction, read-out: JAK1 Inhibition IC50
Method in brief: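 Z-lyte FRET assay with 21.2-91.5 ng JAK1 and 2 μM Tyr 06 peptide in 50 mM HEPES pH 7.0 with 10 mM MgCl2, reacted 1 hour before development reagent. Compounds tested in an 11-point dose-response from […] to 0.34 nM. IC50 from 4-parameter logistic fit of emission ratio.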

[2] = test system: IFNγ stimulated STAT1 phosphorylation on Tyr701 (JAK1/2); experiment: JAK1/2 cellular target modulation: IFNγ stimulated phospho-STAT1 in PBMC; assay type: cell-based; conditions: Homo sapiens, PBMC, IFNγ 10 ng/ml, 1 hour compound preincubation, read-out: Infγ-STAT1 IC50
Method in brief: as §1

Sequence of JAK1 (P23458 whole entry): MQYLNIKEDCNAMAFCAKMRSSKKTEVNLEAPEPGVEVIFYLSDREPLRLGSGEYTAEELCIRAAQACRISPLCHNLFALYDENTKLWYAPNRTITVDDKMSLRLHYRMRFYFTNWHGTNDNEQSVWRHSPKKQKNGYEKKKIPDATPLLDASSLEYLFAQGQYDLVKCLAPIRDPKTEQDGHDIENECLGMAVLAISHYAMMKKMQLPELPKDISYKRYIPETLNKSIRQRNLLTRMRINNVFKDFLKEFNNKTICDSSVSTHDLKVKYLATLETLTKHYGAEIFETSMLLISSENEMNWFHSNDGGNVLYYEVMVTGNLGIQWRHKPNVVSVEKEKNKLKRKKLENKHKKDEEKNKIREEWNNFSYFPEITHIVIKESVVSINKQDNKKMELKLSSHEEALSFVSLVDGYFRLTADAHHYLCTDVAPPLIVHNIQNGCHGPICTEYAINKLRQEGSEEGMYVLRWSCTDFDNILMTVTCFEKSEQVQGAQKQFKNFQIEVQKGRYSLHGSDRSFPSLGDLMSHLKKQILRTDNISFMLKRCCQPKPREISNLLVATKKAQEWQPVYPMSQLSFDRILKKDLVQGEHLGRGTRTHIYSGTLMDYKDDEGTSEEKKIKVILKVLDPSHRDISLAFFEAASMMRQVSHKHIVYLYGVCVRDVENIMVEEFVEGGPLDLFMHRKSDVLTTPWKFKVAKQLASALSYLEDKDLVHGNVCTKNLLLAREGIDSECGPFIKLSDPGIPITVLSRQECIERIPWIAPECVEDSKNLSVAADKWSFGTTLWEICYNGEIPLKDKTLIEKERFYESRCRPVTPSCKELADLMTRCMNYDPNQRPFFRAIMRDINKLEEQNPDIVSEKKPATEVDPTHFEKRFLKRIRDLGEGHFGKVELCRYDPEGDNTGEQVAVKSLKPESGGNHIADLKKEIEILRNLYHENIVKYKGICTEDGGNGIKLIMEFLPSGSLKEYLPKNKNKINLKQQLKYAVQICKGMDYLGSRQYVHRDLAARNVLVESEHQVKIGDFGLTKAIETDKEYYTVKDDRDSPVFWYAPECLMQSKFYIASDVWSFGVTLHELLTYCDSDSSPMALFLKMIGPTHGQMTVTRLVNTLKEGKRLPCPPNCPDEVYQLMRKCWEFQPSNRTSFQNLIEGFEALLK
Sequence of JAK3 (a.a. 781-1124) (P52333 781-1124): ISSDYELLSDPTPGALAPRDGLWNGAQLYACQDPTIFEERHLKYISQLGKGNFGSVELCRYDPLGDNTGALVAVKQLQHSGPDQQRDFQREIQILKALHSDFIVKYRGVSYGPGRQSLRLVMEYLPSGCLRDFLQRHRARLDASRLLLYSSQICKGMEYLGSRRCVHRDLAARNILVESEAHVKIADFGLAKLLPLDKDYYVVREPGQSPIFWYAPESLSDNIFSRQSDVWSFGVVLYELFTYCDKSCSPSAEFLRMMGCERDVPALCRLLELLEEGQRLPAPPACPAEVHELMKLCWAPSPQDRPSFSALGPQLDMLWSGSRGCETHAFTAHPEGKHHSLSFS

Row | IC50 (JAK3 (a.a. 781-1124)) [nM] | IC50 [1] [nM] | IC50 (JAK1) [nM] | IC50 [2] [nM] | Structure (SMILES)
1 | 10 to 100 | 100 to 1000 | 10 to 100 | 100 to 1000 | CCOC(=O)c1cnc2[nH]ccc2c1N[C@@H]1CCCN(C(=O)C(C)(C)C#N)C1 [Example 144, ethyl (R)-4-((1-(2-cyano-2-methylpropanoyl)piperidin-3-yl)amino)-1H-pyrrolo[2,3-b]pyridine-5-carboxylate]
2 | 10 to 100 | ≤ 100 | ≤ 10 | 100 to 1000 | N#CCC(=O)N1CCC[C@@H](Nc2c(C(=O)OCC3CC3)cnc3[nH]ccc23)C1 [Example 145, cyclopropylmethyl (R)-4-((1-(2-cyanoacetyl)piperidin-3-yl)amino)-1H-pyrrolo[2,3-b]pyridine-5-carboxylate]
3 | ≤ 10 | ≤ 100 | ≤ 10 | ≤ 100 | CCOC(=O)c1cnc2[nH]ccc2c1N[C@@H]1CC[C@H](C)N(C(=O)CC#N)C1 [Example 146, ethyl 4-(((3R,6S)-1-(2-cyanoacetyl)-6-methylpiperidin-3-yl)amino)-1H-pyrrolo[2,3-b]pyridine-5-carboxylate]
4 | 100 to 1000 | 100 to 1000 | 100 to 1000 | > 1000 | N#CCC[C@H]1CCC[C@H](Nc2c(C(=O)O)cnc3[nH]ccc23)C1 [Example 147, 4-(((1S,3R)-3-(2-cyanoethyl)cyclohexyl)amino)-1H-pyrrolo[2,3-b]pyridine-5-carboxylic acid]

More lines, now with the values behind:

Row | Structure (SMILES) | IC50 (JAK3 (a.a. 781-1124)) [nM] | IC50 [1] [nM] | IC50 (JAK1) [nM] | IC50 [2] [nM]
5 | CCCOC(=O)c1cnc2[nH]ccc2c1N[C@@H]1CCCN(C(=O)CC#N)C1 [Example 130, propyl (R)-4-((1-(2-cyanoacetyl)piperidin-3-yl)amino)-1H-pyrrolo[2,3-b]pyridine-5-carboxylate] | ≤ 10 | 100 to 1000 | ≤ 10 | 100 to 1000
6 | COCCOC(=O)c1cnc2[nH]ccc2c1N[C@@H]1CCCN(C(=O)CC#N)C1 [Example 131, 2-methoxyethyl (R)-4-((1-(2-cyanoacetyl)piperidin-3-yl)amino)-1H-pyrrolo[2,3-b]pyridine-5-carboxylate] | 10 to 100 | 100 to 1000 | 10 to 100 | 100 to 1000
7 | CCOC(=O)c1cnc2[nH]ccc2c1NC1CCCC(CCC#N)C1 (stereo not drawn) [Example 132, ethyl 4-((3-(2-cyanoethyl)cyclohexyl)amino)-1H-pyrrolo[2,3-b]pyridine-5-carboxylate] | ≤ 10 | ≤ 100 | ≤ 10 | 100 to 1000
8 | CCOC(=O)c1cnc2[nH]ccc2c1NC1CCCC(O)C1 (stereo not drawn) [Example 141, ethyl 4-((3-hydroxycyclohexyl)amino)-1H-pyrrolo[2,3-b]pyridine-5-carboxylate] | 10 to 100 | 100 to 1000 | 10 to 100 | > 1000
9 | CCOC(=O)c1cnc2[nH]ccc2c1NC1CCC(O)C(CC#N)C1 (stereo not drawn) [Example 142, ethyl 4-((3-(cyanomethyl)-4-hydroxycyclohexyl)amino)-1H-pyrrolo[2,3-b]pyridine-5-carboxylate] | 10 to 100 | ≤ 100 | ≤ 10 | 100 to 1000
